Values joined by “and” are separate entries in the source; they are usually repeats but may differ in a detail not shown here. Equal values may be shown once. Read-outs that look alike come from different tables or passages of the source.
Experiments:
[1] = system: Trypanosoma brucei brucei; test: In vitro trypanocidal assay (microscopic viability, bloodstream forms); type: cell-based; conditions: 1 μg/mL, 24-hr incubation, read-out: growth inhibition against T. b. brucei
Method: Culture suspension of Trypanosoma brucei brucei (T. b. brucei) was obtained from Research Institute for Microbial Diseases (Osaka University, Japan). Trypanosomes were subcultured in appropriate medium (see 5.1.2) as frequently as needed to avoid overgrowth, and maintained in culture flasks at 37° C. in a humidified, 5% CO2 atmosphere incubator. In addition, parasite culture stabilates were prepared by suspending trypanosomes centrifugation (1500 rpm, room temperature, 3 min) pellet in 1 mL of a mixture of […] (v/v) trypanosome dilution buffer and 33% (v/v) glycerol. The whole volume was transferred into cryotubes and stored at −80° C. until further needed. […]
All fractions obtained stepwise in the course of the separation process of the plant crude extracts were assessed for their in vitro activity against T. b. brucei. […] Trypanosomes were harvested at late exponential growth level, counted with a hemocytometer (Erma Tokyo 7059), and resuspended by appropriate dilution in culture medium for achieving a final density of 1×10^4 cells/mL. […] After successively 24, 48, and 72 hr-incubations, parasites viability was determined by observing directly inside the wells of the microculture plate with an optical microscope (Injectoscope model IMT-YF/Olympus). […]

[2] = system: HeLa S3 cells; test: Cytotoxicity assay in vitro (MTT); type: cell-based, human; conditions: 1 μg/mL
Method: An axenic culture of human carcinoma HeLa S3 cell line was established in Dulbecco's Modified Eagle's Medium (D-MEM, Sigma) supplemented with 4500 mg glucose/L, L-glutamine, NaHCO3, and pyridoxine HCl, to which 10% heat-inactivated (56° C., 40 min) fetal bovine serum (FBS, MultiSer) was added. Plant chromatographic fractions, which have shown potent trypanocidal activity in vitro, were selected for cytotoxicity assay. Previously dissolved in neat DMSO (Wako-for biochemical assay), an aliquot of 10 μL of each test sample was diluted in 490 μL of the cell culture medium with the intent of decreasing the DMSO concentration to 2% in the medium. HeLa S3 cells maintained in culture dish (Sumilon) were washed with Dulbecco's phosphate saline buffer (-) [DPBS (-), Nissui Pharmaceutical Co., Ltd] after syphonating the culture medium. Adherent cells were released from their dish bottom substrate by adding trypsin (Nacalai) and gently tapping with hand on the round lateral side of the dish. […] After shaking ([…]) for 3-5 min, the absorbance in each well was measured at 540 nm in a microtiter plate reader (ImmunoMini NJ-2300). The percentage of cytotoxicity (growth inhibition level) was calculated as (A-B)/A×100, where A is the mean optical density of negative control wells and B is the mean optical density of test sample wells.

[3] = system: Leishmania major ATCC 50122 amastigotes; test: In vitro amastigote/macrophage culture drug screening; type: cell-based; conditions: for effectiveness ranking of the compounds in the screen: 2.0 μM initial screen
Method: Preliminary drug screening (in vitro amastigote/macrophage culture) of artemisinin and artelinic acid compounds.
The four compounds were dissolved in the respective solvents as indicated in the table below (Table 1) and were tested against Leishmania major ATCC 50122 amastigotes in vitro in a mouse macrophage system. A positive (Pentostam) and negative (culture medium) controls were set for each plate. Compounds were tested at 2.0 μM in a total volume of 2-0 mls. Drug was added to well every 4 hours×1, 2 and 3, and results shown in (Table 2) below.
Because of the high potency of Artelinic acid relative to the other compounds, the experiments were repeated with different doses of Artelinic acid alone.

[4] = cited from earlier work
[5] = system: Leishmania major lesions; test: In vivo testing in BALB/c mice, Leishmania footpad lesion; conditions: for Lesion Size (mm) Post-Rx: daily for one week, 9 days after commencement; for Lesion Size (mm) Pre-Rx: prior to dosing
Method: One foot pad was infected with infective Leishmania promastigotes while the other foot served as control. After the infected foot pads had developed lesions, mice with similar size lesions were selected and treated daily with test article for one week. The first doses were administered on 18 May. Lesions were measured with calipers prior to dosing and 9 days after commencement of treatment (27 May) and the difference in lesion size calculated. The thickness of the uninfected footpad was also measured. […] Test articles were administered orally and intra-peritoneally (ip).

[6] = system: Leishmania major ATCC 50122 amastigotes; test: In vitro amastigote/macrophage culture drug screening; type: cell-based; conditions: added once

## C[C@@H]1CC[C@H]2[C@@H](C)C(=O)O[C@@H]3O[C@@]4(C)CC[C@@H]1[C@]32OO4 [Artemisinin, (+)-artemisinin]
[1]
  inhibition at 1 µg/mL: ≥ 80%
[2]
  cytotoxic level in vitro: 17.3%
[3]
  killing of / potency against Leishmania parasites within mouse macrophages in vitro: results were duplicated
  effectiveness ranking of the compounds in the screen: Artelinic acid>>>Dihydroartemisinin>Beta Arteether>>Artemisinin
[3]; 2.0 μM, compound added q4 h × 1
  parasites per macrophage: between 4-7

## CCO[C@H]1O[C@@H]2O[C@@]3(C)CC[C@H]4[C@H](C)CC[C@@H]([C@H]1C)[C@@]24OO3 [Beta Arteether, Beta-Arteether]
[3]
  effectiveness ranking of the compounds in the screen: Artelinic acid>>>Dihydroartemisinin>Beta Arteether>>Artemisinin

## Nc1nc(N)nc(Nc2ccc([As]3SCC(CO)S3)cc2)n1 (stereo not drawn) [Melarsoprol]
[4]; po
  oral bioavailability: no oral bioavailability

## N=C(N)c1ccc(OCCCCCOc2ccc(C(=N)N)cc2)cc1 [Pentamidine]
[4]
  oral bioavailability: no oral bioavailability

## Cc1ccc(C(=O)Nc2ccc(S(=O)(=O)O)c3cc(S(=O)(=O)O)cc(S(=O)(=O)O)c23)cc1NC(=O)c1cccc(NC(=O)Nc2cccc(C(=O)Nc3cc(C(=O)Nc4ccc(S(=O)(=O)O)c5cc(S(=O)(=O)O)cc(S(=O)(=O)O)c45)ccc3C)c2)c1 [Suramin]
[4]
  oral bioavailability: no oral bioavailability

## O.O.O.O.O.O.O.O.O.O=C([O-])[C@@H]1[O][Sb](=[O])([O][Sb]2(=[O])[O][C@H]([C@H](O)CO)[C@H](O)[C@H](C(=O)[O-])[O]2)[O][C@H]([C@H](O)CO)[C@@H]1O.[Na+].[Na+].[Na+] (stereo partly drawn) [Pentostam]
[5]; 20 mg/Kg, IP
  Lesion Size (mm) Post-Rx: 2.3 mm and 3.0 mm and 2.7 mm
  Lesion Size (mm) Pre-Rx: 2.8 mm and 2.6 mm
[5]; 20 mg/Kg, Oral
  Lesion Size (mm) Post-Rx: 2.6 mm and 2.9 mm
  Lesion Size (mm) Pre-Rx: 2.8 mm and 2.7 mm

## C[C@H]1[C@@H](OCc2ccc(C(=O)O)cc2)O[C@@H]2O[C@@]3(C)CC[C@H]4[C@H](C)CC[C@@H]1[C@@]24OO3 [Artelinic acid, artelinic acid]
[3]
  killing of / potency against Leishmania parasites within mouse macrophages in vitro: marked potency
  effectiveness ranking of the compounds in the screen: Artelinic acid>>>Dihydroartemisinin>Beta Arteether>>Artemisinin
[3]; 2.0 μM, added once
  observation on Leishmania amastigotes: All the leishmania amastigotes were cleared
[3]; 2 uM, initial screen
  clearance of amastigotes in macrophages: cleared all of the amastigates in macrophages
[3]; dose response, added once
  lowest concentration at which killing of intracellular amastigotes was noted: 0.1 µM
  lowest dose at which clearance was complete: 0.25 µM
[5]; 4 ul/Kg, IP
  Lesion Size (mm) Post-Rx: 2.1 mm and 2.2 mm and 2.0 mm
  Lesion Size (mm) Pre-Rx: 2.6 mm and 2.5 mm
[5]; 4 ul/Kg, Oral
  Lesion Size (mm) Pre-Rx: 2.7 mm and 2.8 mm
[5]; at the doses and route of administration tested
  effectiveness compared with Pentostam, the positive control: much more effective than Pentostam
[5]; given orally or ip for one week
  effect on size of Leishmania major footpad lesions: decrease in the size of Leishmania major lesions
[6]; 0.25 μM
  observation on Leishmania amastigotes: Cleared all the Leishmania amastigotes
[6]; 0.5 μM
  observation on Leishmania amastigotes: Cleared all the parasites in the cytoplasm
[6]; 1.0 μM
  observation on Leishmania amastigotes: All the amastigotes were cleared from the macrophages

— US8715751B2, “Artemisinins in the clinical and veterinary management of kinetoplastid infections” (The United States of America as Represented by the …, priority 2006, dated 2014)
